Data published in ChEMBL document CHEMBL3885881, “DrugMatrix”.

Organism: Rattus norvegicus
Experiment: DrugMatrix - Regimen: Daily Repeat
Type: toxicity, organism-based, Sprague-Dawley
Set-up: regimen Daily Repeat, gender Male, age 6-8 weeks
Conditions: in vivo, iv, vehicle 100 % SALINE; for ABSOLUTE BASOPHIL / ABSOLUTE EOSINOPHIL / ABSOLUTE LYMPHOCYTE / ABSOLUTE MONOCYTE / ABSOLUTE SEGMENTED NEUTROPHIL / BASOPHIL / EOSINOPHIL / ERYTHROCYTE COUNT / HEMATOCRIT / HEMOGLOBIN / LEUKOCYTE COUNT / LYMPHOCYTE / MEAN CORPUSCULAR HEMOGLOBIN / MEAN CORPUSCULAR HEMOGLOBIN CONCENTRATION / MEAN CORPUSCULAR VOLUME / MONOCYTE / NEUTROPHIL / NUCLEATED RED BLOOD CELLS / PLATELET COUNT: tissue Blood; for ALANINE AMINOTRANSFERASE / ALBUMIN / ALKALINE PHOSPHATASE / ASPARTATE AMINOTRANSFERASE / BLOOD UREA NITROGEN / CARBON DIOXIDE / CHLORIDE / CHOLESTEROL / CREATINE PHOSPHOKINASE / CREATININE / GLUCOSE / LACTATE DEHYDROGENASE / LIPASE / PHOSPHORUS / POTASSIUM / SODIUM / TOTAL BILIRUBIN / TOTAL PROTEIN / URIC ACID: tissue Plasma
[1] = 100 mg/kg, 72 h, dose level Low, time 3 day
[2] = 100 mg/kg, 120 h, dose level Low, time 5 day
[3] = 1000 mg/kg, 72 h, dose level High, time 3 day
[4] = 1000 mg/kg, 120 h, dose level High, time 5 day

SMILES: OC[C@@H](O)[C@@H](O)[C@H](O)[C@H](O)CO [MANNITOL]
- ABSOLUTE BASOPHIL [1]: 0 CELLS/uL
- ABSOLUTE EOSINOPHIL [1]: 269 CELLS/uL
- ABSOLUTE LYMPHOCYTE [1]: 11772.67 CELLS/uL
- ABSOLUTE MONOCYTE [1]: 286.33 CELLS/uL
- ABSOLUTE SEGMENTED NEUTROPHIL [1]: 638.67 CELLS/uL
- BASOPHIL [1]: 0%
- EOSINOPHIL [1]: 2%
- ERYTHROCYTE COUNT [1]: 5.91 x10E6/uL
- HEMATOCRIT [1]: 37.23%
- HEMOGLOBIN [1]: 13.83 G/DL
- LEUKOCYTE COUNT [1]: 12.97 x10E3/uL
- LYMPHOCYTE [1]: 90.67%
- MEAN CORPUSCULAR HEMOGLOBIN [1]: 23.43 pg
- MEAN CORPUSCULAR HEMOGLOBIN CONCENTRATION [1]: 37.1 G/DL
- MEAN CORPUSCULAR VOLUME [1]: 62.97 fL
- MONOCYTE [1]: 2.33%
- NEUTROPHIL [1]: 5%
- NUCLEATED RED BLOOD CELLS [1]: 0 /100WBC
- PLATELET COUNT [1]: 1250.33 x10E3/uL
- ALANINE AMINOTRANSFERASE [1]: 48.67 u/L
- ALBUMIN [1]: 4.13 G/DL
- ALKALINE PHOSPHATASE [1]: 350 u/L
- ASPARTATE AMINOTRANSFERASE [1]: 97.33 u/L
- BLOOD UREA NITROGEN [1]: 16.33 mg/dL
- CARBON DIOXIDE [1]: 24.67 mmol/L
- CHLORIDE [1]: 104 MEQ/L
- CHOLESTEROL [1]: 77.67 mg/dL
- CREATINE PHOSPHOKINASE [1]: 393.67 u/L
- CREATININE [1]: 0.2 mg/dL
- GLUCOSE [1]: 160.33 mg/dL
- LACTATE DEHYDROGENASE [1]: 480.67 u/L
- LIPASE [1]: 8.67 u/L
- PHOSPHORUS [1]: 13.8 mg/dL
- POTASSIUM [1]: 6.9 MEQ/L
- SODIUM [1]: 146.1 MEQ/L
- TOTAL BILIRUBIN [1]: 0.2 mg/dL
- TOTAL PROTEIN [1]: 5.93 G/DL
- URIC ACID [1]: 1.7 mg/dL
- ABSOLUTE BASOPHIL [2]: 0 CELLS/uL
- ABSOLUTE EOSINOPHIL [2]: 0 CELLS/uL
- ABSOLUTE LYMPHOCYTE [2]: 12262.33 CELLS/uL
- ABSOLUTE MONOCYTE [2]: 402.33 CELLS/uL
- ABSOLUTE SEGMENTED NEUTROPHIL [2]: 1202 CELLS/uL
- BASOPHIL [2]: 0%
- EOSINOPHIL [2]: 0%
- ERYTHROCYTE COUNT [2]: 5.62 x10E6/uL
- HEMATOCRIT [2]: 34.87%
- HEMOGLOBIN [2]: 12.8 G/DL
- LEUKOCYTE COUNT [2]: 13.87 x10E3/uL
- LYMPHOCYTE [2]: 88.33%
- MEAN CORPUSCULAR HEMOGLOBIN [2]: 22.77 pg
- MEAN CORPUSCULAR HEMOGLOBIN CONCENTRATION [2]: 36.73 G/DL
- MEAN CORPUSCULAR VOLUME [2]: 62 fL
- MONOCYTE [2]: 3%
- NEUTROPHIL [2]: 8.67%
- NUCLEATED RED BLOOD CELLS [2]: 0 /100WBC
- PLATELET COUNT [2]: 1182.33 x10E3/uL
- ALANINE AMINOTRANSFERASE [2]: 73.33 u/L
- ALBUMIN [2]: 4.27 G/DL
- ALKALINE PHOSPHATASE [2]: 396 u/L
- ASPARTATE AMINOTRANSFERASE [2]: 130.33 u/L
- BLOOD UREA NITROGEN [2]: 17.67 mg/dL
- CARBON DIOXIDE [2]: 21.67 mmol/L
- CHLORIDE [2]: 110.67 MEQ/L
- CHOLESTEROL [2]: 83 mg/dL
- CREATINE PHOSPHOKINASE [2]: 1094.67 u/L
- CREATININE [2]: 0.15 mg/dL
- GLUCOSE [2]: 196.33 mg/dL
- LACTATE DEHYDROGENASE [2]: 396.67 u/L
- LIPASE [2]: 9.67 u/L
- PHOSPHORUS [2]: 14.1 mg/dL
- POTASSIUM [2]: 6.09 MEQ/L
- SODIUM [2]: 148.6 MEQ/L
- TOTAL BILIRUBIN [2]: 0.13 mg/dL
- TOTAL PROTEIN [2]: 5.73 G/DL
- URIC ACID [2]: 2.53 mg/dL
- ABSOLUTE BASOPHIL [3]: 0 CELLS/uL
- ABSOLUTE EOSINOPHIL [3]: 168 CELLS/uL
- ABSOLUTE LYMPHOCYTE [3]: 12528 CELLS/uL
- ABSOLUTE MONOCYTE [3]: 421 CELLS/uL
- ABSOLUTE SEGMENTED NEUTROPHIL [3]: 916.33 CELLS/uL
- BASOPHIL [3]: 0%
- EOSINOPHIL [3]: 1.33%
- ERYTHROCYTE COUNT [3]: 5.26 x10E6/uL
- HEMATOCRIT [3]: 34.8%
- HEMOGLOBIN [3]: 13.1 G/DL
- LEUKOCYTE COUNT [3]: 14.03 x10E3/uL
- LYMPHOCYTE [3]: 89%
- MEAN CORPUSCULAR HEMOGLOBIN [3]: 24.9 pg
- MEAN CORPUSCULAR HEMOGLOBIN CONCENTRATION [3]: 37.7 G/DL
- MEAN CORPUSCULAR VOLUME [3]: 66.13 fL
- MONOCYTE [3]: 3%
- NEUTROPHIL [3]: 6.67%
- NUCLEATED RED BLOOD CELLS [3]: 0 /100WBC
- PLATELET COUNT [3]: 1218.33 x10E3/uL
- ALANINE AMINOTRANSFERASE [3]: 45 u/L
- ALBUMIN [3]: 4.1 G/DL
- ALKALINE PHOSPHATASE [3]: 339.33 u/L
- ASPARTATE AMINOTRANSFERASE [3]: 74.33 u/L
- BLOOD UREA NITROGEN [3]: 14.67 mg/dL
- CARBON DIOXIDE [3]: 21.67 mmol/L
- CHLORIDE [3]: 105 MEQ/L
- CHOLESTEROL [3]: 68.33 mg/dL
- CREATINE PHOSPHOKINASE [3]: 402.67 u/L
- CREATININE [3]: 0.13 mg/dL
- GLUCOSE [3]: 181.67 mg/dL
- LACTATE DEHYDROGENASE [3]: 239.67 u/L
- LIPASE [3]: 9.33 u/L
- PHOSPHORUS [3]: 14.13 mg/dL
- POTASSIUM [3]: 6.11 MEQ/L
- SODIUM [3]: 145 MEQ/L
- TOTAL BILIRUBIN [3]: 0.23 mg/dL
- TOTAL PROTEIN [3]: 5.93 G/DL
- URIC ACID [3]: 1.77 mg/dL
- ABSOLUTE BASOPHIL [4]: 0 CELLS/uL
- ABSOLUTE EOSINOPHIL [4]: 45 CELLS/uL
- ABSOLUTE LYMPHOCYTE [4]: 12203.33 CELLS/uL
- ABSOLUTE MONOCYTE [4]: 139 CELLS/uL
- ABSOLUTE SEGMENTED NEUTROPHIL [4]: 779.33 CELLS/uL
- BASOPHIL [4]: 0%
- EOSINOPHIL [4]: 0.33%
- ERYTHROCYTE COUNT [4]: 5.59 x10E6/uL
- HEMATOCRIT [4]: 35.07%
- HEMOGLOBIN [4]: 13.4 G/DL
- LEUKOCYTE COUNT [4]: 13.17 x10E3/uL
- LYMPHOCYTE [4]: 92.67%
- MEAN CORPUSCULAR HEMOGLOBIN [4]: 23.97 pg
- MEAN CORPUSCULAR HEMOGLOBIN CONCENTRATION [4]: 38.27 G/DL
- MEAN CORPUSCULAR VOLUME [4]: 62.67 fL
- MONOCYTE [4]: 1%
- NEUTROPHIL [4]: 6%
- NUCLEATED RED BLOOD CELLS [4]: 0 /100WBC
- PLATELET COUNT [4]: 1310 x10E3/uL
- ALANINE AMINOTRANSFERASE [4]: 39 u/L
- ALBUMIN [4]: 4.3 G/DL
- ALKALINE PHOSPHATASE [4]: 331.67 u/L
- ASPARTATE AMINOTRANSFERASE [4]: 64.67 u/L
- BLOOD UREA NITROGEN [4]: 17.33 mg/dL
- CARBON DIOXIDE [4]: 25.67 mmol/L
- CHLORIDE [4]: 109.67 MEQ/L
- CHOLESTEROL [4]: 67.67 mg/dL
- CREATINE PHOSPHOKINASE [4]: 165.33 u/L
- CREATININE [4]: 0.19 mg/dL
- GLUCOSE [4]: 172.33 mg/dL
- LACTATE DEHYDROGENASE [4]: 106.33 u/L
- LIPASE [4]: 8.67 u/L
- PHOSPHORUS [4]: 12.67 mg/dL
- POTASSIUM [4]: 6.4 MEQ/L
- SODIUM [4]: 148.93 MEQ/L
- TOTAL BILIRUBIN [4]: 0.2 mg/dL
- TOTAL PROTEIN [4]: 6.3 G/DL
- URIC ACID [4]: 1.67 mg/dL
